Assay results published in publication PMC9569529, “Safe and Efficient Sigma1 Ligand: A Potential Drug Candidate for Multiple Sclerosis” (International Journal of Molecular Sciences, 2022).
≈ marks a conversion by molar mass, not a printed value. Where two headings read alike, the source gives them in different places.

Columns and labels:
[1] = Microsomal stability in mouse liver microsomes; type: in vitro ADME; conditions: mLM; for Compound Remaining (1 h, %): 10 µM; for half-life at 10 µM / microsomal CLint at 10 µM: mouse, liver microsomes
Protocol: Metabolic stability analysis (mouse and human liver microsomes) was performed by Eurofins Cerep (Poitiers, France) at 10 µM as described in [55]. Results were obtained at 15, 30, 45 and 60 min. Results were expressed as percent of the parent compound remaining, and calculated by comparing the peak area of the compound at the time point relative to that at time 0. The half-life (t1/2) and the apparent intrinsic clearance (CLint) were evaluated.

[2] = Solubility, shake-flask method; type: physicochemical; conditions: thermodynamic from solid
Protocol: Standardized in vitro ADME experiments were performed by Eurofins Cerep (Poitiers, France). Solubility assays were performed in PBS at pH 7.4, but also in simulated gastric fluid (SGF) and intestinal fluid (SIF), through the classical shake-flask method according to Lipinski et al. using HPLC-UV/VIS technology. Results were expressed in µM.

[3] = Bidirectional permeability in Caco-2 (pH 6.5/7.4); type: in vitro ADME, human; conditions: human; for Papp A→B at 10 µM: Caco-2, pH 6.5, Caco-2, 10 µM, read-out: Permeability A/B pH6.5/7.4; for efflux ratio at 10 µM: Caco-2, pH 6.5, Papp(B-A)/Papp(A-B), pH 6.5/7.4, read-out: e-ratio (efflux ratio); for Papp B→A at 10 µM: pH 6.5, Caco-2, 10 µM, read-out: Permeability B/A pH6.5/7.4
Protocol: (§1) The compound was classically evaluated at 10 µM for all the ADME analyses. Bidirectional permeability (apical A to basolateral B pH 6.5/7.4 and basolateral B to apical A pH 7.4/6.5) was assessed in the epithelial colorectal adenocarcinoma cell line (Caco-2 cell line). Results were expressed as × 10^−6cm/s (Papp) and as % recovery. Efflux ratio, i.e., Papp(B-A)/Papp(A-B), was calculated. Plasma protein binding was analyzed by HPLC-MS/MS after 4-h incubation at 37 °C, as described by Banker et al.. Concentration was evaluated by LC/MS-MS. CYP inhibition was performed in human liver microsomes as described in [61]. Analysis of the respective metabolites. was performed by HPLC-MS/MS. Transporter inhibition analysis was also performed in overexpressing cell lines. Respective metabolites for each specific transporter substrate were analyzed by fluorometry or scintillation counting and % inhibition of control values were calculated. P-glycoprotein transporter substrate assessment was performed by bidirectional permeability analysis (apical A to basolateral B pH 7.4/7.4 and basolateral B to apical A pH 7.4/7.4) in the Caco-2 cell line with and without verapamil, as described in [59]. Results were expressed as ×10^−6 cm/s (Papp) and as % recovery. The efflux ratio, i.e., Papp(B-A)/Papp(A-B), was calculated. CYP450 induction characterization was performed on human hepatocytes. The mRNA levels of 7 different CYPs were analyzed by qPCR, as described in [72]. The compound was evaluated at 1, 10 and 100 µM. Fold-induction values were determined and compared to cut-off values, as defined for each CYP isozyme in each hepatocyte lot.

Plasma protein binding = type: in vitro ADME; conditions: 4-h incubation at 37 °C, read-out: PPB (converted)
Protocol: as §1, with “P-glycoprotein transporter substrate assessment was performed by bidirectional permeability analysis (apical A to basolateral B pH 7.4/7.4 and basolateral B to apical A pH 7.4/7.4) in the Caco-2 cell line with and without verapamil, as described in [59].” left out, “CYP450 induction characterization was performed on human hepatocytes.” left out

BCRP = BCRP (Homo sapiens, UniProt Q9UNQ0); assay: Drug transporter inhibition (ABC family); type: in vitro ADME; conditions: transporter-overexpressing cell lines, read-out: Drug transporters inhibition BCRP
Protocol: as §1

MRP1 = MRP1 (Homo sapiens, UniProt P33527); assay: Drug transporter inhibition (ABC family); type: in vitro ADME; conditions: transporter-overexpressing cell lines, read-out: Drug transporters inhibition MRP1
Protocol: as §1

MRP2 = MRP2 (Homo sapiens, UniProt Q92887); assay: Drug transporter inhibition (ABC family); type: in vitro ADME; conditions: transporter-overexpressing cell lines, read-out: Drug transporters inhibition MRP2
Protocol: as §1

MRP3 = MRP3 (Homo sapiens, UniProt O15438); assay: Drug transporter inhibition (ABC family); type: in vitro ADME; conditions: transporter-overexpressing cell lines, read-out: Drug transporters inhibition MRP3
Protocol: as §1

P-gp = molecular target: T1, P-gp (Homo sapiens, UniProt P08183); assay: Drug transporter inhibition (ABC family); type: in vitro ADME; conditions: transporter-overexpressing cell lines, read-out: Drug transporters inhibition P-gp
T1 construct: in the Caco-2 cell line with and without verapamil; host or cells: Caco-2
Protocol: as §1

ABST = ABST (Homo sapiens, UniProt Q12908); assay: Drug transporter inhibition (SLC family); type: in vitro ADME; conditions: read-out: Drug transporters inhibition ABST
Protocol: as §1

NTCP = NTCP (Homo sapiens, UniProt Q14973); assay: Drug transporter inhibition (SLC family); type: in vitro ADME; conditions: read-out: Drug transporters inhibition NTCP
Protocol: as §1

OAT1 = OAT1 (Homo sapiens, UniProt Q4U2R8); assay: Drug transporter inhibition (SLC family); type: in vitro ADME; conditions: transporter-overexpressing cell lines, read-out: Drug transporters inhibition OAT1
Protocol: as §1

OAT3 = OAT3 (Homo sapiens, UniProt Q8TCC7); assay: Drug transporter inhibition (SLC family); type: in vitro ADME; conditions: transporter-overexpressing cell lines, read-out: Drug transporters inhibition OAT3
Protocol: as §1

OATP1B1 = OATP1B1 (Homo sapiens, UniProt Q9Y6L6); assay: Drug transporter inhibition (SLC family); type: in vitro ADME; conditions: transporter-overexpressing cell lines, read-out: Drug transporters inhibition OATP1B1
Protocol: as §1

OATP1B3 = OATP1B3 (Homo sapiens, UniProt Q9NPD5); assay: Drug transporter inhibition (SLC family); type: in vitro ADME; conditions: transporter-overexpressing cell lines, read-out: Drug transporters inhibition OATP1B3
Protocol: as §1

OCT1 = OCT1 (Homo sapiens, UniProt O15245); assay: Drug transporter inhibition (SLC family); type: in vitro ADME; conditions: transporter-overexpressing cell lines, read-out: Drug transporters inhibition OCT1
Protocol: as §1

OCT2 = OCT2 (Homo sapiens, UniProt O15244); assay: Drug transporter inhibition (SLC family); type: in vitro ADME; conditions: transporter-overexpressing cell lines, read-out: Drug transporters inhibition OCT2
Protocol: as §1

hERG = molecular target: T2, hERG (Homo sapiens, UniProt Q12809); assay: hERG automated patch-clamp in hERG-CHO cells; type: cell-based
T2 construct: host or cells: CHO (hERG-CHO overexpressing cells)
Protocol: Cardiotoxicity analysis was performed by Eurofins Cerep (Poitiers, France) according to [73]. hERG-CHO overexpressing cells were used to perform automated patch-clamping. Compound 7i was evaluated at 0.1, 1 and 10 µM. Activities were expressed as % inhibition of tail current.

[4] = PBS pH 7.4, pH 7.4, aqueous buffer, read-out: Solubility PBS pH7.4
[5] = simulated gastric fluid (SGF), simulated gastric fluid, read-out: Solubility SGF
[6] = simulated intestinal fluid (SIF), fassgf or other biorelevant, read-out: Solubility SIF

Chain of OCT1 (O15245 whole entry): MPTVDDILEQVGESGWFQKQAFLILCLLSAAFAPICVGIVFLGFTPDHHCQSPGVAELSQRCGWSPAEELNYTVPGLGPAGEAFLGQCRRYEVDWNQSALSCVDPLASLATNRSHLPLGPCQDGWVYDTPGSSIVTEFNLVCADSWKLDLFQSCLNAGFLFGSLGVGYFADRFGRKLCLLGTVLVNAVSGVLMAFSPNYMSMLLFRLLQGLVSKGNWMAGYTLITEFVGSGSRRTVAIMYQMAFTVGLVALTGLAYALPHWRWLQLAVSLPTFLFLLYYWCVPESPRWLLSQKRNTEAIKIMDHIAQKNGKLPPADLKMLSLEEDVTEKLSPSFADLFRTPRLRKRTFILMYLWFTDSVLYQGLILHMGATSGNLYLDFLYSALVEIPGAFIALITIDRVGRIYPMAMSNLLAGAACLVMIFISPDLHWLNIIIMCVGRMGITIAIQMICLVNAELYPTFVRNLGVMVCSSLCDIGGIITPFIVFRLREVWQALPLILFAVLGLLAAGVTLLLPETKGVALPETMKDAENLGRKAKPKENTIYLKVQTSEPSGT
Chain of MRP2 (Q92887 whole entry): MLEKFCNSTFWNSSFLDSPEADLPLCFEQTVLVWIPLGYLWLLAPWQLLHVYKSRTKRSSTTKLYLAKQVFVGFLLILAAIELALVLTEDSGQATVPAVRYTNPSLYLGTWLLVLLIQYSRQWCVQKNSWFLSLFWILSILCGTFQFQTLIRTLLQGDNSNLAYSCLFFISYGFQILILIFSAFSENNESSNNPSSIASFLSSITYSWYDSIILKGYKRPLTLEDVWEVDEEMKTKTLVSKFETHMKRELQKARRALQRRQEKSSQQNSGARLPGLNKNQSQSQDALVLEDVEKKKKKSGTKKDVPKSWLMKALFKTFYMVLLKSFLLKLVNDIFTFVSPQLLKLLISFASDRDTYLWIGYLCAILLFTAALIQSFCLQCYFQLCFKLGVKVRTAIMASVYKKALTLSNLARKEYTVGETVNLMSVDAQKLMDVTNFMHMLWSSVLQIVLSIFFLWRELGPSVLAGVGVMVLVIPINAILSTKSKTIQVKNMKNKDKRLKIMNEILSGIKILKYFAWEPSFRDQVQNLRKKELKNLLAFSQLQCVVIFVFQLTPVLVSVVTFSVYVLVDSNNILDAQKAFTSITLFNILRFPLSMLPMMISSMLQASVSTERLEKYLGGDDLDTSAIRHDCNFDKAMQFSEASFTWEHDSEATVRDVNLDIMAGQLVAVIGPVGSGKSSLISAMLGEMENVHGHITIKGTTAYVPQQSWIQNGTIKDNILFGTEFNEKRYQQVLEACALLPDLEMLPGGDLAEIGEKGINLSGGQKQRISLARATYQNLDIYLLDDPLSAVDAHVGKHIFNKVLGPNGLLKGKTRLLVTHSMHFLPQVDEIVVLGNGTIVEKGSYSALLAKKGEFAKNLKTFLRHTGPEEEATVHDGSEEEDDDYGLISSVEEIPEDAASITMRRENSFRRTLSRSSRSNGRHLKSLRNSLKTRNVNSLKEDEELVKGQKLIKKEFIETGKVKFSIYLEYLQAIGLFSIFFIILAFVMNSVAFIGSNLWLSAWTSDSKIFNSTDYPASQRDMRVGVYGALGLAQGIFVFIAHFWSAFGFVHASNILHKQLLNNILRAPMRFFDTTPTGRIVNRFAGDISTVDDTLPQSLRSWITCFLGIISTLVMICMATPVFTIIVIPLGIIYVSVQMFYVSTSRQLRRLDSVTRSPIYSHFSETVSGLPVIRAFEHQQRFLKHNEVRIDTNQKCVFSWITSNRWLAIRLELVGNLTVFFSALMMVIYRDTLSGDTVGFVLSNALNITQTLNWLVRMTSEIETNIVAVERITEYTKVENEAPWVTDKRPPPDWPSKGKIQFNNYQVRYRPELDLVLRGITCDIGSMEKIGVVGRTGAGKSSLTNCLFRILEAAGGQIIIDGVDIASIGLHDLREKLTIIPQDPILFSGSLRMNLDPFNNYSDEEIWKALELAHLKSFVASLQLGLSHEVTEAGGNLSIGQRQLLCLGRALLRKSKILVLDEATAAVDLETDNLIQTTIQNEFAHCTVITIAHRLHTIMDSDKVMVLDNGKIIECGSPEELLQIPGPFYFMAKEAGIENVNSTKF
Chain of OATP1B3 (Q9NPD5 whole entry): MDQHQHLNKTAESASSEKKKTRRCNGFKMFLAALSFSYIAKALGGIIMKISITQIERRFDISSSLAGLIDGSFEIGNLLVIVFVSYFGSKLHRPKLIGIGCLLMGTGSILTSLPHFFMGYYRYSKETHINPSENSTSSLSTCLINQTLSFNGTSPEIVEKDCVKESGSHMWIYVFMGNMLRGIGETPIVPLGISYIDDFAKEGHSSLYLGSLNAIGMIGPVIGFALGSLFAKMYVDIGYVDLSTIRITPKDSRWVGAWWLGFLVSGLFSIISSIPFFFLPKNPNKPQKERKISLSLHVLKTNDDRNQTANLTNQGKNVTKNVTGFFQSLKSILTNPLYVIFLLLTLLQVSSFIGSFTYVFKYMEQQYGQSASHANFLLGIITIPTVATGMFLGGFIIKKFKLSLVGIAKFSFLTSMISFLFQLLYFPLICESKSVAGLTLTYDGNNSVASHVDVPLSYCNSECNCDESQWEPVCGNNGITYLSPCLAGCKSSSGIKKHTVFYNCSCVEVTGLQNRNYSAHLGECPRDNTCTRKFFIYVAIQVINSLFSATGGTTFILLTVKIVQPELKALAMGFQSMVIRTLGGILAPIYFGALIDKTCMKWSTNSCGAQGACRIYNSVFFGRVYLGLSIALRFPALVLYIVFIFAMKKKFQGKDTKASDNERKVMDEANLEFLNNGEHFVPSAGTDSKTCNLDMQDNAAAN
Chain of OATP1B1 (Q9Y6L6 whole entry): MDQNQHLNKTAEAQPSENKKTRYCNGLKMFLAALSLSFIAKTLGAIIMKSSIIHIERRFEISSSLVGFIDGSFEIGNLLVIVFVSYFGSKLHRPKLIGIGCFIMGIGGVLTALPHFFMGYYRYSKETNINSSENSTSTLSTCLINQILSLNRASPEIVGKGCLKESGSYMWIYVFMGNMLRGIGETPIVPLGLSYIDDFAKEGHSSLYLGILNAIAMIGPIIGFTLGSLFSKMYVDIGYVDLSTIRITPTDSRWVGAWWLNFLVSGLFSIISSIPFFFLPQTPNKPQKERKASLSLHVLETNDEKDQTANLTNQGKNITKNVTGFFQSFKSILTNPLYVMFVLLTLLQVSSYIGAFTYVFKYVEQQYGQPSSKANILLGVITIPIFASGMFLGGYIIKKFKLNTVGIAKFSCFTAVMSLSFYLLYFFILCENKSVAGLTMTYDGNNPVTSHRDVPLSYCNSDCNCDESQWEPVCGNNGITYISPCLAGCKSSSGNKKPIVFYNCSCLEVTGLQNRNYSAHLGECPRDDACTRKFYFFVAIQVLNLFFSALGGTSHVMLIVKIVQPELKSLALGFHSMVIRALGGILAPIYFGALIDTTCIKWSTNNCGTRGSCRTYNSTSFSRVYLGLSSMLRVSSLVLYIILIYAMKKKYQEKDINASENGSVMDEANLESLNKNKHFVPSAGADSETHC
Chain of OAT1 (Q4U2R8 whole entry): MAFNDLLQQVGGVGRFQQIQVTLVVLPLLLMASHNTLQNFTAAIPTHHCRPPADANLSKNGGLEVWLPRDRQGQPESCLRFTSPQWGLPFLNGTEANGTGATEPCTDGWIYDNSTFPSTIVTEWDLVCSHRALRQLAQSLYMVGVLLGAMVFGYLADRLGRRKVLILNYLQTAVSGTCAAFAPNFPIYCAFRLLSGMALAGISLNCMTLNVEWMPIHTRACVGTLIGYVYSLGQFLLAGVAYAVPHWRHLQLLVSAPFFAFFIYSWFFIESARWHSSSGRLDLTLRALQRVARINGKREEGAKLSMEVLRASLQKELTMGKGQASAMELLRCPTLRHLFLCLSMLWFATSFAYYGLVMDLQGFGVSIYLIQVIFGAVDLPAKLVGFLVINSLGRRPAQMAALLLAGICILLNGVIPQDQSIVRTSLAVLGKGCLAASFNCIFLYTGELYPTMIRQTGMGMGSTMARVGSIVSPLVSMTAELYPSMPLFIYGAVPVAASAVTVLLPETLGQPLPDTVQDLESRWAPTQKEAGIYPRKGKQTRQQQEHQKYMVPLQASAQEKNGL
Chain of ABST (Q12908 whole entry): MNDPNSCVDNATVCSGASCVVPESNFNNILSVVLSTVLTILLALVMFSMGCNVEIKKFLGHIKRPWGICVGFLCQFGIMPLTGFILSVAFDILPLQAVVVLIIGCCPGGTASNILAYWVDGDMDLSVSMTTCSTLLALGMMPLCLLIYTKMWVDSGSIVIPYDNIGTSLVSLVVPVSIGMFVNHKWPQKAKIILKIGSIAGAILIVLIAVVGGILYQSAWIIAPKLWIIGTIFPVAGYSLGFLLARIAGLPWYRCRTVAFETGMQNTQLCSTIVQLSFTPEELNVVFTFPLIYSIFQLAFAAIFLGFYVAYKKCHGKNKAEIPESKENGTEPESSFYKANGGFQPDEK
Chain of OCT2 (O15244 whole entry): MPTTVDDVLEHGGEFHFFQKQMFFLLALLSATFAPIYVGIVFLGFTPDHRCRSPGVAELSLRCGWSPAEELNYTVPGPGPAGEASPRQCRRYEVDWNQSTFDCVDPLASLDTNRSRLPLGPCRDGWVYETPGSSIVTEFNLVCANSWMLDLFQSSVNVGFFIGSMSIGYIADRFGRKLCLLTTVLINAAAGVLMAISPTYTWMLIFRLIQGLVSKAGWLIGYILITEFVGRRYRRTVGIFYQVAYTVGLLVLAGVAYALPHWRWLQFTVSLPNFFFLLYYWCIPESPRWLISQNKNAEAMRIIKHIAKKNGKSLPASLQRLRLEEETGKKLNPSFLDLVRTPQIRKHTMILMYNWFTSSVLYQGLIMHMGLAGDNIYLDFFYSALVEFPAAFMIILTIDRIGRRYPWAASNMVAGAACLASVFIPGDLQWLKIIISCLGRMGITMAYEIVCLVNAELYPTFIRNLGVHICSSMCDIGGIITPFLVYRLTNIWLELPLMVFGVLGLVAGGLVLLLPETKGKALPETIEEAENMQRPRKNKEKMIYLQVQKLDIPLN

Structure (SMILES)	Compound Remaining (1 h, %) [1] [%]	half-life at 10 µM [1] [h]	microsomal CLint at 10 µM [1] [µL/min/mg]	solubility [2, 4] [µM]	solubility [2, 5] [µM]	solubility [2, 6] [µM]	Papp A→B at 10 µM [3] [×10⁻⁶ cm/s]	efflux ratio at 10 µM [3]	Papp B→A at 10 µM [3] [×10⁻⁶ cm/s]	fraction unbound at 4 h, 10 µM (Plasma protein binding)	inhibition at 10 µM (BCRP) [%]	inhibition at 10 µM (MRP1) [%]	inhibition at 10 µM (MRP2) [%]	inhibition at 10 µM (MRP3) [%]	inhibition at 10 µM (P-gp) [%]	inhibition at 10 µM (ABST) [%]	inhibition at 10 µM (NTCP) [%]	inhibition at 10 µM (OAT1) [%]	inhibition at 10 µM (OAT3) [%]	inhibition at 10 µM (OATP1B1) [%]	also measured
O=C(NCCCNCc1ccccc1)c1ccc(Cl)cc1 [compound 7i-deMe]	80	> 3	< 115	187 (≈ 56.6 µg/mL)	197 (≈ 59.7 µg/mL)	196 (≈ 59.3 µg/mL)	31.1	1.7	51.5	0.19	-3	-3.4	-11.5	-0.6	1	5	8.7	-6.2	18.7	8.6	inhibition at 10 µM (OATP1B3): 19.1%; inhibition at 10 µM (OCT1): 64.6%; inhibition at 10 µM (OCT2): 85.8%; IC50 (hERG; read-out: hERG IC50): 1.2 µM
CN(CCCNC(=O)c1ccc(Cl)cc1)Cc1ccccc1 [compound 7i]	54	> 1	< 115	185 (≈ 58.6 µg/mL)	193 (≈ 61.1 µg/mL)	188 (≈ 59.6 µg/mL)	≤ 20	~2	66.1	> 0.05	8.3	1.9	-18.8	-0.3	10.6	5.3	-1.7	-9.6	34.3	12	inhibition at 10 µM (OATP1B3): 23.1%; inhibition at 10 µM (OCT1): 41.2%; inhibition at 10 µM (OCT2): 49.4%; IC50 (hERG; Table 4, read-out: hERG inhibition IC50): 1 µM
